According to ChEMBL document CHEMBL3886248, “Selective androgen receptor modulators” (2015):

biological target: T1, Androgen receptor (Rattus norvegicus, UniProt P15207); experiment: The assay was performed as specified by the manufacturer (Invitrogen, Madison, Wis.). Briefly, 1 ul of 10 mM compound was added to 500 ul of AR screening buffer in a 1.5 ml eppendorf tube to make a 2x10E-5M stock. 10-fold serial dilutions of the test compounds were prepared ranging in concentration from 10E-5M to 10E-12M. Each dilution was added in triplicate to a black 384-microtiter plate. The test compounds will be diluted 2-fold in the final reaction. 2x AR-Fluormone complex was prepared with 2 nM Flourmone AL Green and 30 nM AR. 25 ul of 2x complex was aliquoted to each reaction well, such that the final reaction volume was 50 ul per well.
T1 sequence (P15207 whole entry): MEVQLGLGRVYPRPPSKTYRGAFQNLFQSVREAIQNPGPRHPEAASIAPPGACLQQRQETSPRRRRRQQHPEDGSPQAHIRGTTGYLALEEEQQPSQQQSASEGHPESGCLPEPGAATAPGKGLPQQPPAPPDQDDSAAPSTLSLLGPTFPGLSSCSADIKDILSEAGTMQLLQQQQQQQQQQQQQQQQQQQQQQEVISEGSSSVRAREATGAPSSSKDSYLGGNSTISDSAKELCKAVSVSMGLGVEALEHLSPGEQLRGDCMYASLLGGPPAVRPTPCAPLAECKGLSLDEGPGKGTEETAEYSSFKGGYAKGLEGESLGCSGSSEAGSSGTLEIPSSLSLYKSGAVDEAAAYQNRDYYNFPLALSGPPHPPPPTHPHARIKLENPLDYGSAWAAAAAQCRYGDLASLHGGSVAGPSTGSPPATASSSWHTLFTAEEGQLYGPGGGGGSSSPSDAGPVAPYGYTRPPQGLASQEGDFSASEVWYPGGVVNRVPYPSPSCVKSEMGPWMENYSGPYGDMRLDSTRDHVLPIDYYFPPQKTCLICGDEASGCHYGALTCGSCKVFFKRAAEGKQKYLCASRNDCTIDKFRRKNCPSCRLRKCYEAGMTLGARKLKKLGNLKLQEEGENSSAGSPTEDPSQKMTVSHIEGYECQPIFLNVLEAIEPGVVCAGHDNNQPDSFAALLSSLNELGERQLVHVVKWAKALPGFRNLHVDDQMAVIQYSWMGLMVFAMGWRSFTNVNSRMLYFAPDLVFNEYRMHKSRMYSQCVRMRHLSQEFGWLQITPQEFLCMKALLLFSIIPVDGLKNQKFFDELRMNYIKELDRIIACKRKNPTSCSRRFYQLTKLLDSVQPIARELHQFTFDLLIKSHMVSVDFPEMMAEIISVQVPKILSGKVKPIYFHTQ

Row | Compound | IC50 [nM]
1 | Cc1c(N2C(=O)OC[C@@H]2[C@@H](O)C(F)(F)F)ccc(C#N)c1C(F)(F)F | > 1000
2 | C[C@@H]1OC(=O)N(c2ccc(C#N)c(C(F)(F)F)c2)[C@H]1[C@@H](O)C(F)(F)F | 72
3 | C[C@@H]1OC(=O)N(c2ccc(C#N)c(C(F)(F)F)c2)[C@H]1[C@H](O)C(F)(F)F | 4
